Source: PMC10105947, “Discovery of novel amino acid production traits by evolution of synthetic co-cultures” (Microbial Cell Factories, 2023)

How the values were obtained:
ArgT [1] = target: T1, ArgT (Corynebacterium glutamicum, UniProt Q8NQU2); assay: isothermal titration calorimetry, purified His10-ArgT; format: binding
T1 construct: His10-ArgT, variant with cleavable His-tag and lacking the signal peptide

ArgT [2] = target: T1, ArgT; assay: isothermal titration calorimetry, purified His10-ArgT (one measurement); format: binding

T1 sequence (Q8NQU2 27-304): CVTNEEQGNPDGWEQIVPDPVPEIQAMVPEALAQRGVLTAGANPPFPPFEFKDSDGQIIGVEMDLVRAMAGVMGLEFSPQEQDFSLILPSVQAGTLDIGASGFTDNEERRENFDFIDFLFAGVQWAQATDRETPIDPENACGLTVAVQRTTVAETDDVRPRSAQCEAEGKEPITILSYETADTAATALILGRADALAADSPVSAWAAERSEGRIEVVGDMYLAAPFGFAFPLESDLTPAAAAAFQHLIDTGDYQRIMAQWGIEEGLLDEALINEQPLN

Kd (ArgT [2])	SMILES	Kd (ArgT [1])
–	N=C(N)NCCC[C@H](N)C(=O)O [L-arginine]	0.0295 ± 0.0048 µM
0.432 µM	NC(=O)NCCC[C@H](N)C(=O)O [L-citrulline]	–
